{"source": "paper PMC7649969", "about": "“Pyrazolyl-pyrimidones inhibit the function of human solute carrier protein SLC11A2 (hDMT1) by metal chelation” (RSC Medicinal Chemistry, 2020)", "key": {"[1]": {"assay": "isothermal titration calorimetry with Cd2+", "format": "binding", "conditions": "pH 7.4, 25 °C, read-out: apparent dissociation constant KD"}, "[2]": {"assay": "calcein quenching (competition) assay to detect Fe2+ chelation", "conditions": "pH 5.5, 2 μM Fe2+, 1 μM calcein"}, "hDMT1": {"target": "T1, hDMT1 (Homo sapiens, UniProt P49281)", "T1 sequence (P49281 1-568)": "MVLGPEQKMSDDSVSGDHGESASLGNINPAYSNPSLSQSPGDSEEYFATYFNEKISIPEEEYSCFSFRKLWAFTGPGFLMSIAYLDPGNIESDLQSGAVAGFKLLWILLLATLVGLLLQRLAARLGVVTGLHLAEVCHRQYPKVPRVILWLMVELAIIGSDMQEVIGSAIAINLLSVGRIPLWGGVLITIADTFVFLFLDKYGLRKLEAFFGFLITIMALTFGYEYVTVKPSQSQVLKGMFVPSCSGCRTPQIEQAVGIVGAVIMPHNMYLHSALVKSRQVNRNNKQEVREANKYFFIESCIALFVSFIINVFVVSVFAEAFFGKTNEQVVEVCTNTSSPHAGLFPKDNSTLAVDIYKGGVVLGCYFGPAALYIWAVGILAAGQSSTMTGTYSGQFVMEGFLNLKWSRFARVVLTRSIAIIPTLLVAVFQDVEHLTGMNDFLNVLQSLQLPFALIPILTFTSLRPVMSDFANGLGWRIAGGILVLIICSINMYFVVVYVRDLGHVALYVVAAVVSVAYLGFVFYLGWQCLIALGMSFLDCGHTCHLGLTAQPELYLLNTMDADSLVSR", "assay": "55Fe2+ uptake in Xenopus laevis oocytes overexpressing hDMT1", "format": "cell-based", "parameters": "DsRED; expressed in transfected cells; host or cells: HEK293T (ATCC CRL-3216), transient transfection with Lipofectamine 2000", "conditions": "compound 10 μM, 55Fe2+ 20 μM", "description": "Fig. 3 Characterization of Fe^2+ transport inhibition by 1 and 13 in X. laevis oocytes (collected from frogs under license number BE60/18 conceded by the Veterinärdienst des Kantons BE, Sekretariat Tierversuche). (a) Upper panel: Average ^55Fe^2+-uptake (20 μM) by hDMT1-expressing and non-injected oocytes in the absence and the presence of the indicated compounds (10 μM). Data was normalized to ^55Fe^2+-uptake (pmol min^–1) in the absence of compounds represented as mean ± SD (16–29 oocytes). Lower panel: Net uptake of ^55Fe^2+ (20 μM) by hDMT1 in the absence and the presence of the indicated compounds (10 μM). For each batch of oocytes, uptake values were corrected for unspecific iron uptake in non-injected oocytes. Data were normalized to the mean iron uptake by hDMT1 WT (pmol min^–1) and represented as mean ± SD (14–34 oocytes). (b and c) Electrophysiology. […] For each trace, recorded currents were corrected for the background currents observed without substrate. (b) Representative traces recorded with hDMT1 injected oocytes (upper panel) and non-injected oocytes (lower panel). […] Statistical differences were assessed using T-test or Mann–Whitney U test (Fe^2+-uptake by hDMT1 WT vs. non-injected oocytes or vs. compound); p > 0.05 = ns; p < 0.001 = ***. […]"}, "[3]": {"assay": "solubility noted at HPLC purity determination", "format": "physicochemical", "description": "Table S3: Purity of the final compounds.\nCompound Retention time Purity [%] HPLC\naMethod A: in 2.2 min from 100 % A to 10 0% D, then staying at 100 % D. Method B: in 7.5 min from 10 0% A to 100 % D,"}}, "data": [{"smiles": "Cc1cc(=O)[nH]c(-n2nc3c(c2C)CCCC3)n1", "note": "[Compound 13]", "values": [{"measurement": "Kd", "setting": "[1]", "value": 6.4, "unit": "µM"}, {"measurement": "iron chelation in calcein competition assay", "setting": "[2]", "value": "significant level of iron chelation"}, {"measurement": "inhibition at 10 µM", "setting": "hDMT1; read-out: inhibition of radioactive iron uptake in oocytes", "value": 50, "unit": "%"}]}, {"smiles": "N=C(N)SCc1cccc2c1oc1c(CSC(=N)N)cccc12", "note": "[Compound 1, reference compound]", "values": [{"measurement": "inhibition of radioactive iron uptake in oocytes", "setting": "hDMT1", "value": "totally inhibited"}]}, {"smiles": "Cc1nn(-c2ccccn2)c(O)c1C(=O)Nc1cccc(C(F)(F)F)c1", "note": "[Compound 3, reference compound]", "values": [{"measurement": "solubility in water and acetonitrile", "setting": "[3]", "value": "not soluble in water and acetonitrile"}]}]}
